Where two headings read alike, the source gives them in different places.

Among the test systems are CMK; ML-2; MV4-11; MOLM-13; CHRF288-11; M07e; CMS; U937.
Set-up in all cases: species or system AML cell lines (8); Primary HTS, single concentration about 10 uM, Cell Titer Glo viability; log10 luminescence, per cent inhibition relative to cycloheximide control
Conditions in all cases: 72 h, relative to cycloheximide control, log10 luminescence, inhibitor
A general note: Cellular ATP, detected with luciferase, serves as a proxy for viable cell number.

`COCC1=C(C(=O)O)N2C(=O)[C@@H](NC(=O)/C(=N\OC)c3csc(N)n3)[C@H]2SC1` [SJ000312312-2, CEFPODOXIME, FREE ACID| R-3763| U-76253 | CEFPODOXIME, FREE ACID| R-3763| U-76253 | (6R,7R)-7-((Z)-2-(2-AMINOTHIAZOL-4-YL)-2-(METHOXYIMINO)ACETAMIDO)-3-(METHOXYMETHYL)-8-OXO-5-THIA-1-AZABICYCLO[4.2.0]OCT-2-ENE-2-CARBOXYLIC ACID]: the CMK %inh with CMK came out at 34.96%. In addition, in the test with ML-2, the ML-2 %inh is on record as -0.4312%. In addition, the MV4-11 %inh in the test on MV4-11 was -2.052%. For the same compound, the MOLM-13 %inh with MOLM-13 is recorded as -1.275%. In the test with CHRF288-11, the CHRF288-11 %inh amounted to 0.005285%. In the test on M07e, the M07e %inh is listed as -1.66%. Besides, in the test on CMS, the CMS %inh is on record as -1.332%. Also, in the test with U937, the U937 %inh is -1.004%.

`CCn1cc(C(=O)O)c(=O)c2cc(F)c(N3CCNCC3)nc21` [SJ000285962-4, ENOXACIN]: the CMK %inh in the test on CMK is 15.64%. Moreover, the ML-2 %inh in the test on ML-2 was found to be 32.21%. Also, the MV4-11 %inh with MV4-11 turned out to be 40.28%. The MOLM-13 %inh with MOLM-13 was -2.8%. In the test with CHRF288-11, the CHRF288-11 %inh was 7.607%. The M07e %inh with M07e came to 7.045%. Also, the CMS %inh with CMS is 4.313%. Besides, in the test with U937, the U937 %inh is reported as -0.8348%.

As for `CNC(=O)c1cncc(/C=C/c2ccccc2C)c1` [SJ000573069-1, U12068/59/1], the CMK %inh with CMK is listed as -3.696%. For the same compound, the ML-2 %inh with ML-2 is on record as -0.01519%. The MV4-11 %inh in the test with MV4-11 is -0.4269%. For the same compound, the MOLM-13 %inh in the test on MOLM-13 is -1.542%. Also, the CHRF288-11 %inh with CHRF288-11 is -2.201%. In addition, the M07e %inh with M07e was 4.224%. For the same compound, the CMS %inh with CMS amounted to 0.1448%. The U937 %inh in the test with U937 is -1.047%.

As to `Nc1nonc1-c1nc2cnccc2n1C1CCCCC1` [SJ000573355-1, SD100950-004A1], in the test on CMK, the CMK %inh is on record as 8.293%. Besides, the ML-2 %inh in the test on ML-2 was determined as 31.12%. In addition, the MV4-11 %inh in the test with MV4-11 amounted to 40.98%. Also, the MOLM-13 %inh with MOLM-13 stood at 7.234%. Besides, the CHRF288-11 %inh in the test on CHRF288-11 is given as 15.53%. Also, the M07e %inh in the test with M07e is given as -4.008%. For the same compound, in the test on CMS, the CMS %inh is listed as 13.87%. The U937 %inh in the test with U937 is 17.92%.

Turning to `C[C@H](CS)C(=O)N1CCC[C@H]1C(=O)O` [SJ000286908-9, CAPTOPRIL], the CMK %inh in the test on CMK (CMK %inh, 10 µM) is reported as -4.021%. Besides, in the test with ML-2 (ML-2 %inh, 10 µM), the ML-2 %inh is listed as -0.6374%. Moreover, in the test on MV4-11 (MV4-11 %inh, 10 µM), the MV4-11 %inh is 1.577%. The MOLM-13 %inh in the test on MOLM-13 (MOLM-13 %inh, 10 µM) is -1.689%. Moreover, in the test with CHRF288-11 (CHRF288-11 %inh, 10 µM), the CHRF288-11 %inh is given as -5.11%. Besides, in the test with M07e (M07e %inh, 10 µM), the M07e %inh was 0.8569%. Moreover, in the test on CMS (CMS %inh, 10 µM), the CMS %inh was determined as 0.9516%. The U937 %inh with U937 (U937 %inh, 10 µM) is recorded as -2.673%.

For the compound `CO[C@H]1C[C@@H]2CC[C@@H](C)[C@@](O)(O2)C(=O)C(=O)N2CCCC[C@H]2C(=O)O[C@H]([C@H](C)C[C@@H]2CC[C@@H](OC(=O)C(C)(CO)CO)[C@H](OC)C2)CC(=O)[C@H](C)/C=C(\C)[C@@H](O)[C@@H](OC)C(=O)[C@H](C)C[C@H](C)/C=C/C=C/C=C/1C` [SJ000518987-1, TEMSIROLIMUS | CCI-779 | NSC-683864 | TORISEL | TEMSIROLIMUS (CCI-779, NSC 683864)], the CMK %inh in the test on CMK is 14.34%. For the same compound, the ML-2 %inh in the test on ML-2 stood at 9.499%. Further, in the test with MV4-11, the MV4-11 %inh was 11.74%. For the same compound, the MOLM-13 %inh in the test on MOLM-13 was 6.723%. Moreover, the CHRF288-11 %inh in the test on CHRF288-11 came to 29.37%. Moreover, the M07e %inh with M07e was found to be 19.45%. Besides, in the test on CMS, the CMS %inh was found to be 21.7%. Moreover, the U937 %inh in the test on U937 is reported as 25.81%.

`Cn1cc(C2=C(c3cn(CCCCCN)c4ccccc34)C(=O)NC2=O)c2ccccc21` [SJ000581165-1]: the CMK %inh in the test on CMK stood at 0.6124%. Also, the ML-2 %inh in the test with ML-2 came to 1.663%. For the same compound, the MV4-11 %inh in the test on MV4-11 was 1.637%. Further, the MOLM-13 %inh with MOLM-13 is recorded as 2.139%. Also, the CHRF288-11 %inh in the test on CHRF288-11 was 2.441%. In addition, the M07e %inh in the test with M07e is recorded as 4.895%. In addition, the CMS %inh in the test with CMS came to 0.9818%. The U937 %inh in the test on U937 came out at 0.4783%.

As for `NC(N)=Nc1nc(CSCC/C(N)=N/S(N)(=O)=O)cs1` [SJ000285829-7, FAMOTIDINE], in the test with CMK, the CMK %inh was 0.6614%. Also, in the test with ML-2, the ML-2 %inh is recorded as 2.616%. Further, in the test on MV4-11, the MV4-11 %inh is given as -0.5719%. In addition, the MOLM-13 %inh in the test with MOLM-13 turned out to be 1.07%. Also, the CHRF288-11 %inh in the test with CHRF288-11 is on record as -4.142%. Also, the M07e %inh with M07e came to 1.389%. In addition, the CMS %inh with CMS is 0.7839%. Besides, the U937 %inh with U937 was determined as 7.705%.

Take `O=C1Nc2ccc(C(=O)c3ccco3)cc2C1=Cc1cc(Cl)c(O)c(Cl)c1` [SJ000573076-1, U12068/71/3]: the CMK %inh in the test with CMK is -2.763%. For the same compound, the ML-2 %inh with ML-2 is 3.323%. For the same compound, the MV4-11 %inh with MV4-11 came to 1.256%. Also, the MOLM-13 %inh with MOLM-13 turned out to be 0.2179%. The CHRF288-11 %inh in the test with CHRF288-11 amounted to 1.037%. In addition, the M07e %inh in the test with M07e is 2.097%. Further, in the test on CMS, the CMS %inh amounted to 3.176%. Also, the U937 %inh with U937 is -1.189%.

For the compound `Cn1cc(C2=C(Oc3ccccc3)C(=O)NC2=O)c2ccccc21` [SJ000581001-1], the CMK %inh in the test on CMK was -0.6422%. The ML-2 %inh in the test on ML-2 is -1.623%. For the same compound, the MV4-11 %inh in the test on MV4-11 is -0.8354%. Further, the MOLM-13 %inh in the test on MOLM-13 is reported as -0.02006%. In addition, the CHRF288-11 %inh with CHRF288-11 is given as -2.432%. In the test on M07e, the M07e %inh is listed as -0.2429%. Also, the CMS %inh in the test on CMS was -3.067%. Besides, the U937 %inh in the test with U937 was determined as 0.6544%.

As to `Oc1c(Cl)cc(Cl)c(Cl)c1Cc1c(O)c(Cl)cc(Cl)c1Cl` [SJ000285273-4, HEXACHLOROPHENE], the CMK %inh with CMK is given as 117.7%. The ML-2 %inh with ML-2 is given as 15.89%. In the test with MV4-11, the MV4-11 %inh is 7.526%. Moreover, the MOLM-13 %inh in the test with MOLM-13 was 75.15%. In addition, in the test with CHRF288-11, the CHRF288-11 %inh is given as 23.59%. Besides, the M07e %inh with M07e was determined as 10.84%. Further, the CMS %inh in the test on CMS is listed as 32.47%. Besides, the U937 %inh with U937 is 24.03%.

On to `Cc1cc(-c2ccco2)cc(C)c1/C=C/c1cncc(-c2nn[nH]n2)c1` [SJ000573157-1, T209/165/1], for which the CMK %inh with CMK is on record as -3.964%. Further, the ML-2 %inh in the test with ML-2 was found to be 0.8109%. The MV4-11 %inh in the test with MV4-11 is recorded as -0.5767%. Moreover, the MOLM-13 %inh in the test on MOLM-13 was -1.72%. The CHRF288-11 %inh in the test on CHRF288-11 was found to be 6.913%. Also, the M07e %inh with M07e turned out to be 4.709%. The CMS %inh in the test on CMS was determined as 1.933%. Also, in the test on U937, the U937 %inh is recorded as -2.587%.

On to `COc1ccc(C2=C(c3cn(C)c4ccccc34)C(=O)NC2=O)cc1OC` [SJ000581003-1], for which, in the test on CMK, the CMK %inh is recorded as 38.95%. The ML-2 %inh with ML-2 is -1.913%. Also, in the test on MV4-11, the MV4-11 %inh is 4.678%. Moreover, in the test with MOLM-13, the MOLM-13 %inh turned out to be 0.7842%. Besides, the CHRF288-11 %inh in the test with CHRF288-11 was 6.661%. Besides, the M07e %inh with M07e is -0.2143%. In addition, the CMS %inh in the test on CMS is reported as 5.298%. Moreover, in the test with U937, the U937 %inh is listed as 6.689%.

As to `C[C@H](CS)C(=O)N1CCC[C@H]1C(=O)O` [SJ000286908-8, CAPTOPRIL], in the test with CMK (CMK %inh, 10 µM), the CMK %inh is 0.6591%. In addition, the ML-2 %inh with ML-2 (ML-2 %inh, 10 µM) was -1.462%. Also, the MV4-11 %inh in the test on MV4-11 (MV4-11 %inh, 10 µM) is recorded as -2.616%. Moreover, the MOLM-13 %inh in the test with MOLM-13 (MOLM-13 %inh, 10 µM) came out at 0.1339%. In addition, the CHRF288-11 %inh with CHRF288-11 (CHRF288-11 %inh, 10 µM) was found to be 4.869%. The M07e %inh in the test on M07e (M07e %inh, 10 µM) is -2.045%. Further, the CMS %inh in the test with CMS (CMS %inh, 10 µM) was -1.291%. Further, the U937 %inh in the test with U937 (U937 %inh, 10 µM) is recorded as -1.359%.

On to `Nc1ncnc2occ(-c3ccc(NC(=O)Nc4cc(C(F)(F)F)cc(C(F)(F)F)c4)cc3)c12` [SJ000573331-1, T299/133/15], for which the CMK %inh in the test on CMK is 3.982%. Further, in the test with ML-2, the ML-2 %inh was found to be 1.52%. For the same compound, in the test with MV4-11, the MV4-11 %inh is 73.61%. Further, in the test with MOLM-13, the MOLM-13 %inh stood at 93.65%. Besides, in the test on CHRF288-11, the CHRF288-11 %inh stood at 6.057%. Moreover, in the test with M07e, the M07e %inh was 1.156%. For the same compound, the CMS %inh with CMS is 4.245%. The U937 %inh in the test on U937 was 4.807%.

For the compound `O=C1NC(=O)C(c2cccc(Cl)c2)=C1Nc1ccc(Cl)c(C(=O)O)c1` [SJ000573179-1, RS98844-062A1], in the test with CMK, the CMK %inh is reported as -1.769%. Further, the ML-2 %inh in the test with ML-2 is reported as 0.225%. In addition, the MV4-11 %inh in the test on MV4-11 is listed as -0.02775%. In addition, the MOLM-13 %inh with MOLM-13 is given as -0.7042%. In the test with CHRF288-11, the CHRF288-11 %inh is given as -5.305%. The M07e %inh with M07e is on record as -0.5868%. In addition, the CMS %inh with CMS is reported as -1.594%. For the same compound, the U937 %inh with U937 was 1.114%.

Values taken from publication PMC6522510 (Nature Communications, 2019).
